Results as given in patent US9493426B2, “Quinazolinone derivatives useful as FGFR kinase modulators” (priority 2013, dated 2016).
Like-named read-outs stand apart in the source and are kept apart here.

Columns and labels:
[1] = biological target: Ba/F3-FGFR4-transfected cells (Homo sapiens, UniProt P22455, cells depend on it, form not given); assay: Ba/F3-FGFR4 cellular proliferation assay; format: cell-based; details: 24 hours, Alamar Blue
Protocol: Ba/F3-FGFR4 (Cellular Proliferation Assay)
(§1) In a 384 well plate, 100 nl of compound dilution in DMSO was sprayed before adding 50 μl cell culture medium (phenol red free RPMI-1640, 10% FBS, 2 mM L-Glutamine and 50 μg/ml Gentamycin) containing 20000 cells per well of Ba/F3-FGFR4-transfected cells. Cells were put in an incubator at 37° C. and 5% CO2. After 24 hours, 10 μl of Alamar Blue solution (0.5 mM K3Fe(CN)6, 0.5 mM K4Fe(CN)6, 0.15 mM Resazurin and 100 mM Phosphate Buffer) was added to the wells, incubated for 4 hours at 37° C. and 5% CO2 before RFU's (Relative Fluorescence Units) (ex. 540 nm., em. 590 nm.) were measured in a fluorescence plate reader.
In this assay, the inhibitory effect of different compound concentrations (range 10 μM to 0.1 nM) was determined and used to calculate an IC50 (M) and pIC50 (−log IC50) value.

FGFR1 (h) = FGFR1 (h) (Homo sapiens, UniProt P11362); assay: FGFR1 (enzymatic assay), TR-FRET; format: biochemical
FGFR4 (h) = FGFR4 (h) (Homo sapiens, UniProt P22455); assay: FGFR4 (enzymatic assay), TR-FRET; format: biochemical; details: 5 μM ATP; pIC50 = -log IC50 (M); read-out: FGFR 4 pIC50 (converted)
[2] = biological target: T1, Ba/F3-FGFR3-transfected cells (Homo sapiens, UniProt P22607, cells depend on it, form not given); assay: Ba/F3-FGFR3 (minus IL3 or plus IL3) cellular proliferation assay; format: cell-based; details: 24 hours, Alamar Blue
T1 construct: BAF3-FGFR3 (MIN IL3 pIC50); other: minus IL3; 24 hours, Alamar Blue
Protocol: Ba/F3-FGFR3 (Minus IL3 or Plus IL3) (Cellular Proliferation Assay)
as §1, with “Ba/F3-FGFR3-transfected” for “Ba/F3-FGFR4-transfected”
(§2) In this assay, the inhibitory effect of different compound concentrations (range 10 μM to 0.1 nM) was determined and used to calculate an IC50 (M) and pIC50 (−log IC50) value. As a counterscreen the same experiment was performed in the presence of 10 ng/ml murine IL3.

FGFR2 (h) = FGFR2 (h) (Homo sapiens, UniProt P21802); assay: FGFR2 (enzymatic assay), TR-FRET; format: biochemical
[3] = biological target: T2, Ba/F3-KDR-transfected cells (Homo sapiens, UniProt P35968, cells depend on it, form not given); assay: Ba/F3-KDR (minus IL3 or plus IL3) cellular proliferation assay; format: cell-based; details: 24 hours, Alamar Blue
T2 construct: BAF3-KDR (MIN IL3 pIC50); other: minus IL3; 24 hours, Alamar Blue
Protocol: Ba/F3-KDR (Minus IL3 or Plus IL3) (Cellular Proliferation Assay)
as §1, with “Ba/F3-KDR-transfected” for “Ba/F3-FGFR4-transfected”
as §2

FGFR3 (h) = FGFR3 (h) (Homo sapiens, UniProt P22607); assay: FGFR3 (enzymatic assay), TR-FRET; format: biochemical
KDR (h) = KDR (h) (Homo sapiens, UniProt P35968); assay: KDR (VEGFR2) (enzymatic assay), TR-FRET; format: biochemical; details: 3 μM ATP; pIC50 = -log IC50 (M); read-out: VEGFR KDR pIC50 (converted)
Protocol: KDR (VEGFR2) (Enzymatic Assay)
In a final reaction volume of 30 μL, KDR (h) (150 ng/ml) was incubated with 50 mM HEPES pH 7.5, 6 mM MnCl2, 1 mM DTT, 0.1 mM Na3VO4, 0.01% Triton-X-100, 500 nM Btn-Flt3 and 3 μM ATP in the presence of compound (1% DMSO final). After incubation for 120 minutes at room temperature the reaction was stopped with 2.27 nM EU-anti P-Tyr, 7 mM EDTA, 31.25 nM SA-XL-665 and 0.02% BSA which was present for 60 minutes at room temperature. Time-Resolved Fluorescence Resonance Energy Transfer (TR-FRET) signal (ex340 nm. Em 620 nm, em 655 nm) was measured afterwards and results are expressed in RFU (Relative Fluorescence Units). In this assay, the inhibitory effect of different compound concentrations (range 10 μM to 0.1 nM) was determined and used to calculate an IC50 (M) and pIC50 (−log IC50) value.

[4] = biological target: T3, Ba/F3-FGFR1-transfected cells (Homo sapiens, UniProt P11362); assay: Ba/F3-FGFR1 (minus IL3 or plus IL3) cellular proliferation assay; format: cell-based; details: 24 hours, Alamar Blue
T3 construct: other: minus IL3; 24 hours, Alamar Blue
Protocol: Ba/F3-FGFR1 (Minus IL3 or Plus IL3) (Cellular Proliferation Assay)
as §1, with “Ba/F3-FGFR1-transfected” for “Ba/F3-FGFR4-transfected”
as §2

VEGFR2 = biological target: T4, VEGFR2 (Homo sapiens, UniProt P35968); assay: Enzyme binding assay (KINOMEscan) VEGFR2; details: pKd = -log Kd (M), read-out: VEGFR2_pKd (converted)
T4 construct: purchased DiscoveRx Corporation
Protocol: (§3) Enzyme Binding Assays (KINOMEscan®)
(§4) Kinase enzyme binding affinities of compounds disclosed herein were determined using the KINOMEscan® technology performed by DiscoveRx Corporation, San Diego, Calif., USA (www.kinomescan.com).

FGFR1 = biological target: T5, FGFR1 (Homo sapiens, UniProt P11362); assay: Enzyme binding assay (KINOMEscan) FGFR1; details: FGFR1_pKd, pKd = -log Kd (M)
T5 construct: purchased DiscoveRx Corporation
Protocol: as §3, §4

FGFR2 = biological target: T6, FGFR2 (Homo sapiens, UniProt P21802); assay: Enzyme binding assay (KINOMEscan) FGFR2; details: pKd = -log Kd (M), read-out: FGFR2_pKd (converted)
T6 construct: purchased DiscoveRx Corporation
Protocol: as §3, §4

FGFR4 = biological target: T7, FGFR4 (Homo sapiens, UniProt P22455); assay: Enzyme binding assay (KINOMEscan) FGFR4; details: pKd = -log Kd (M); for Kd: read-out: FGFR4_pKd (converted)
T7 construct: purchased DiscoveRx Corporation
Protocol: as §3, §4

FGFR3 = biological target: T8, FGFR3 (Homo sapiens, UniProt P22607); assay: Enzyme binding assay (KINOMEscan) FGFR3; details: pKd = -log Kd (M), read-out: FGFR3_pKd (converted)
T8 construct: purchased DiscoveRx Corporation
Protocol: as §3, §4

[5] = 0.4 μM ATP, pIC50 = -log IC50 (M), read-out: FGFR 2 pIC50 (converted)
[6] = 25 μM ATP, pIC50 = -log IC50 (M), read-out: FGFR3 pIC50 (converted)

T6 sequence (P21802 22-821): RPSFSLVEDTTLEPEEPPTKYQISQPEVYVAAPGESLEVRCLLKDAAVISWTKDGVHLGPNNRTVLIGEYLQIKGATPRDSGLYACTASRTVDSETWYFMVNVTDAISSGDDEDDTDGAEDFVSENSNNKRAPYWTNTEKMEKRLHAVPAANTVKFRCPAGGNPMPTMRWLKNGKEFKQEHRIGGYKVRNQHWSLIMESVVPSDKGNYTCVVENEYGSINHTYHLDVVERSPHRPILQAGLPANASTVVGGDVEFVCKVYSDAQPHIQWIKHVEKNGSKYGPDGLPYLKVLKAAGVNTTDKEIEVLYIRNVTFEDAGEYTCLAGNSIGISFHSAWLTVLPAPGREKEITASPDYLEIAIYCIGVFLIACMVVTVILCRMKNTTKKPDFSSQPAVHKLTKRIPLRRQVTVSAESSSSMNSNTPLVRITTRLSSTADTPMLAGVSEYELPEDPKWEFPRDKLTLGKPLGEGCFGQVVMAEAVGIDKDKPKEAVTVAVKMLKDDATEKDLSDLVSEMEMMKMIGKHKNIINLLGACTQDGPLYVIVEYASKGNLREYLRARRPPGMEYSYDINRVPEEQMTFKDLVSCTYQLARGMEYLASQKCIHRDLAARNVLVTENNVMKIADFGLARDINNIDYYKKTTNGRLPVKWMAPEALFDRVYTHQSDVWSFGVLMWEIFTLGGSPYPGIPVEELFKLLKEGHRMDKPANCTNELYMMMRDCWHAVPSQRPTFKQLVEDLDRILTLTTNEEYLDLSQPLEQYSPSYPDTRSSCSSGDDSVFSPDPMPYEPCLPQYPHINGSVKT
Chain of FGFR2 (h) (P21802 22-821): as above
Chain of FGFR4 (h) (P22455 22-802): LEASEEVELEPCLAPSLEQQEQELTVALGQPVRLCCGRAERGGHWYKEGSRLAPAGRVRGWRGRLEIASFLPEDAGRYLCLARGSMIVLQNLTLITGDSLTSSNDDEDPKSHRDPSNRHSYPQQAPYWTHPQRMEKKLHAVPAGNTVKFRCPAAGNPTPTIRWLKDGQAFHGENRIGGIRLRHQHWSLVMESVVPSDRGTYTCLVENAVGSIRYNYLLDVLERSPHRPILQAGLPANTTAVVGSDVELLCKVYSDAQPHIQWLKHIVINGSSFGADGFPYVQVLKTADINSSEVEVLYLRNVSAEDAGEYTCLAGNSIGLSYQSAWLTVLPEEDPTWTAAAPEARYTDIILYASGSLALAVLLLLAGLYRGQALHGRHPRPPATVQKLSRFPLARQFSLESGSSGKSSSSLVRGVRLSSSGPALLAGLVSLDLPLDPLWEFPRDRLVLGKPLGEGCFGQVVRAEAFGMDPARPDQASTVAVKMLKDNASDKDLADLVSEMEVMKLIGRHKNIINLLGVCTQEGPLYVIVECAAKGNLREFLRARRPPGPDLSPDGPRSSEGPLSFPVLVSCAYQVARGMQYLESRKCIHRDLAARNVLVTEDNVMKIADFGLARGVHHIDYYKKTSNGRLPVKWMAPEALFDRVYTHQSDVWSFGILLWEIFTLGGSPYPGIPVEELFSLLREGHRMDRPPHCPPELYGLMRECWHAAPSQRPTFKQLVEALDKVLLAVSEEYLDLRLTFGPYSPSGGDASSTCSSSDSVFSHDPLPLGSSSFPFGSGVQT
T7 sequence (P22455 22-802): as above
T4 sequence (P35968 20-1356): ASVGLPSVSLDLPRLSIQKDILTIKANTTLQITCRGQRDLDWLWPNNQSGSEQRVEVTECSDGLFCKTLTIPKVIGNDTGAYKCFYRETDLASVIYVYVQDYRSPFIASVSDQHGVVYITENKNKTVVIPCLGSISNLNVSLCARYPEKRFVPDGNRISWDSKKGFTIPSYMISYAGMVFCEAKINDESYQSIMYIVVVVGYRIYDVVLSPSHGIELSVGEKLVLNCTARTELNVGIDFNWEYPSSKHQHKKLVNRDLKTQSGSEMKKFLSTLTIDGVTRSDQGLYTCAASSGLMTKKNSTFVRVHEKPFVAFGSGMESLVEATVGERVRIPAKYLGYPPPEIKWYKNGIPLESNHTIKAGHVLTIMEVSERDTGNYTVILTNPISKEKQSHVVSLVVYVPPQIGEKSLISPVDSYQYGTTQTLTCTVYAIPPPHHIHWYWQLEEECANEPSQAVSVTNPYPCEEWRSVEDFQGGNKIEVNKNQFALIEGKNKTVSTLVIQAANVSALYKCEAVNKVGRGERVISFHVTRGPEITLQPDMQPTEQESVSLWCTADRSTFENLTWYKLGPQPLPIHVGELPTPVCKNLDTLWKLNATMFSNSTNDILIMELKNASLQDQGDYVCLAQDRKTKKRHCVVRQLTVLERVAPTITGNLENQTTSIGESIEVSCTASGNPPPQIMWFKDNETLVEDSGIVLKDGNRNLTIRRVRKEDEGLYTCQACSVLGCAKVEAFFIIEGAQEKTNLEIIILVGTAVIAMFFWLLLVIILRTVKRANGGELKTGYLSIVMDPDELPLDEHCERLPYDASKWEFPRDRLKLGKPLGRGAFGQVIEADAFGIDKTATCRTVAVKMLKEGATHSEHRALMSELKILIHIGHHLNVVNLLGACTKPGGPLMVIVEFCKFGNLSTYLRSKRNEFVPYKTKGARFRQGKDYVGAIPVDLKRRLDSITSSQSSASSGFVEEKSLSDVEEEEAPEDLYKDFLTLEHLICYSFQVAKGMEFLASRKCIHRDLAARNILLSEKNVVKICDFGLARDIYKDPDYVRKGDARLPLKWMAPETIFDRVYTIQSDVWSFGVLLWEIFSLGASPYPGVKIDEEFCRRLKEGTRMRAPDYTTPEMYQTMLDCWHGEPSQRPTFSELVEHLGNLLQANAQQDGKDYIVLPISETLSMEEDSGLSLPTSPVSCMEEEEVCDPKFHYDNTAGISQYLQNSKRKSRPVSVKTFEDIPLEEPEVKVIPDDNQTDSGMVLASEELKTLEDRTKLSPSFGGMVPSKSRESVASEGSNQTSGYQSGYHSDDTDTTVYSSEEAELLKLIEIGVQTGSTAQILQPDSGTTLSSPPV
Chain of KDR (h) (P35968 20-1356): as above
T1 sequence (P22607 whole entry, looked up, change not shown): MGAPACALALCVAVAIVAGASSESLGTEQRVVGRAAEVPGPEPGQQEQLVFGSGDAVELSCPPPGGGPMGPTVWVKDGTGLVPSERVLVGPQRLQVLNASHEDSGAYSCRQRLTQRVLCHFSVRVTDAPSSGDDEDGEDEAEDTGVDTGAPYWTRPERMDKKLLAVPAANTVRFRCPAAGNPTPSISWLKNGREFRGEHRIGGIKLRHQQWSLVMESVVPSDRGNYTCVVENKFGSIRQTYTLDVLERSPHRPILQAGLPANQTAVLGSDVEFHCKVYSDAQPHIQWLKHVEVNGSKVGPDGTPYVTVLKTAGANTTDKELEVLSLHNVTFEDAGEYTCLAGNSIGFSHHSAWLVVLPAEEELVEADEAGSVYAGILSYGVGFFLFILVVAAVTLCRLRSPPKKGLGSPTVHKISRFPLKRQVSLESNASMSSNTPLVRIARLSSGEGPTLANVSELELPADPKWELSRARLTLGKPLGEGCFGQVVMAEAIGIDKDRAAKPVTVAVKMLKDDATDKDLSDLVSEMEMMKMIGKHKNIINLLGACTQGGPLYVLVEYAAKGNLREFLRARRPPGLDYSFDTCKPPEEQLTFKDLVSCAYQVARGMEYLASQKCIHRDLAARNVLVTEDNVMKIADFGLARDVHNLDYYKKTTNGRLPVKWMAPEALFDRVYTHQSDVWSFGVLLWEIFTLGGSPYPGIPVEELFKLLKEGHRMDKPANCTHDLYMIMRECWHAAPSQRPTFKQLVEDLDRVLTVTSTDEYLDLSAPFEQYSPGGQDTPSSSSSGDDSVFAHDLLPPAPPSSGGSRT
Chain of FGFR3 (h) (P22607 23-806): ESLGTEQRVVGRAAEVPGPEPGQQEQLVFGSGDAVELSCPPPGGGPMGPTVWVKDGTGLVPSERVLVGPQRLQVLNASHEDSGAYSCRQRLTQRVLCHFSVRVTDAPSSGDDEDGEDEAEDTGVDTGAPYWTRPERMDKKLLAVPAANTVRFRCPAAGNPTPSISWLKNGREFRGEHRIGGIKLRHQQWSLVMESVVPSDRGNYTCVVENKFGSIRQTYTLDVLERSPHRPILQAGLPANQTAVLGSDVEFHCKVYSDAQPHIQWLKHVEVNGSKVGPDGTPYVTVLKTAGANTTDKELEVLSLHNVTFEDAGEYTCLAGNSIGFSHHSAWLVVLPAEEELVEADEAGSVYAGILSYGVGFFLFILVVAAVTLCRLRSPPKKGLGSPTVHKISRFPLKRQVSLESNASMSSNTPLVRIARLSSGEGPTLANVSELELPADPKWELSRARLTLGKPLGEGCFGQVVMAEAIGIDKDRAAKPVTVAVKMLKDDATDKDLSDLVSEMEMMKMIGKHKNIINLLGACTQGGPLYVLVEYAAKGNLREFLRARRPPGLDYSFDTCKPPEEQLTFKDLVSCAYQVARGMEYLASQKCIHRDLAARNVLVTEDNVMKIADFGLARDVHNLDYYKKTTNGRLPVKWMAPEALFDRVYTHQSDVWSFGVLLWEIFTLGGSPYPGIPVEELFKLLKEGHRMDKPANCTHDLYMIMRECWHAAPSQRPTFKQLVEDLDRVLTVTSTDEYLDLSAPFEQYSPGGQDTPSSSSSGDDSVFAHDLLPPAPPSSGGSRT
T8 sequence (P22607 23-806): as above

## COc1cc(OC)c(F)c(N(CCO)c2ccc3ncn(-c4ccccc4)c(=O)c3c2)c1F [Compound 1]
[1]
  BAF3-FGFR4 (pIC50): 5.6
FGFR1 (h)
  IC50: 10 nM
FGFR4 (h)
  IC50: 3.98e-08 M
other
  melting point: 169 °C
[2]
  BAF3-FGFR3 (MIN IL3 pIC50): 6.4
FGFR2 (h); [5]
  IC50: 6.31e-09 M
[3]
  BAF3-KDR (MIN IL3 pIC50): ~5
FGFR3 (h); [6]
  IC50: 6.31e-09 M
KDR (h)
  IC50: 2.51e-07 M
[4]
  BAF3-FGFR1 (MIN IL3 pIC50): 6.0

## COc1cc(OC)c(F)c(N(CCNC(C)C)c2ccc3ncn(-c4ccccc4)c(=O)c3c2)c1F [Compound 2]
[1]
  BAF3-FGFR4 (pIC50): 6.3
FGFR1 (h)
  IC50: 6.31 nM
FGFR4 (h)
  IC50: 3.98e-08 M
other
  melting point: 124 °C
[2]
  BAF3-FGFR3 (MIN IL3 pIC50): 7.6
FGFR2 (h); [5]
  IC50: 2.51e-08 M
[3]
  BAF3-KDR (MIN IL3 pIC50): 5.7
FGFR3 (h); [6]
  IC50: 2.51e-08 M
KDR (h)
  IC50: 2.51e-07 M
[4]
  BAF3-FGFR1 (MIN IL3 pIC50): 7.7

## COc1cc(OC)c(F)c(N(Cc2ncc[nH]2)c2ccc3ncn(-c4ccccc4)c(=O)c3c2)c1F [Compound 4]
[1]
  BAF3-FGFR4 (pIC50): 5.4
FGFR1 (h)
  IC50: 15.8 nM
FGFR4 (h)
  IC50: 2.51e-08 M
[2]
  BAF3-FGFR3 (MIN IL3 pIC50): 6.2
FGFR2 (h); [5]
  IC50: 1.26e-08 M
[3]
  BAF3-KDR (MIN IL3 pIC50): <5
FGFR3 (h); [6]
  IC50: 7.94e-09 M
KDR (h)
  IC50: > 1e-06 M
[4]
  BAF3-FGFR1 (MIN IL3 pIC50): 6.1

## COc1cc(OC)c(Cl)c(N(CCO)c2ccc3ncn(-c4ccccc4)c(=O)c3c2)c1Cl [Compound 5]
[1]
  BAF3-FGFR4 (pIC50): <5
FGFR1 (h)
  IC50: 63.1 nM
FGFR4 (h)
  IC50: 5.01e-07 M
other
  melting point: 251 °C
[2]
  BAF3-FGFR3 (MIN IL3 pIC50): 5.3
FGFR2 (h); [5]
  IC50: 3.98e-08 M
[3]
  BAF3-KDR (MIN IL3 pIC50): <5
FGFR3 (h); [6]
  IC50: 2.51e-08 M
KDR (h)
  IC50: ~1e-06 M
[4]
  BAF3-FGFR1 (MIN IL3 pIC50): 5.5

## COc1cc(OC)c(F)c(N(CCO)c2ccc3ncn(-c4ccccc4)c(=O)c3c2)c1 [Compound 6]
[1]
  BAF3-FGFR4 (pIC50): 5.0
FGFR1 (h)
  IC50: 79.4 nM
FGFR4 (h)
  IC50: 3.16e-07 M
other
  melting point: 183 °C
[2]
  BAF3-FGFR3 (MIN IL3 pIC50): 5.5
FGFR2 (h); [5]
  IC50: 5.01e-08 M
[3]
  BAF3-KDR (MIN IL3 pIC50): <5
FGFR3 (h)
  IC50: 3.98e-08 M
KDR (h)
  IC50: > 1e-06 M
[4]
  BAF3-FGFR1 (MIN IL3 pIC50): 5.5

## COc1cc(OC)cc(N(CCO)c2ccc3ncn(-c4cnn(C)c4)c(=O)c3c2)c1 [Compound 8]
[1]
  BAF3-FGFR4 (pIC50): 5.2
FGFR1 (h)
  IC50: 50.1 nM
FGFR4 (h)
  IC50: 1.58e-07 M
other
  melting point: 185 °C
[2]
  BAF3-FGFR3 (MIN IL3 pIC50): 5.6
FGFR2 (h); [5]
  IC50: 2.51e-08 M
[3]
  BAF3-KDR (MIN IL3 pIC50): <5
FGFR3 (h); [6]
  IC50: 2e-08 M
KDR (h)
  IC50: 7.94e-07 M
[4]
  BAF3-FGFR1 (MIN IL3 pIC50): 5.4

## COc1cc(OC)c(Cl)c(N(Cc2ncc[nH]2)c2ccc3ncn(-c4cnn(C)c4)c(=O)c3c2)c1Cl [Compound 13]
[1]
  BAF3-FGFR4 (pIC50): 5.2
FGFR1 (h)
  IC50: 15.8 nM
FGFR4 (h)
  IC50: 1.26e-07 M
[2]
  BAF3-FGFR3 (MIN IL3 pIC50): 5.9
FGFR2 (h)
  IC50: 1.58e-08 M
[3]
  BAF3-KDR (MIN IL3 pIC50): 5.1
FGFR3 (h); [6]
  IC50: 1.26e-08 M
KDR (h)
  IC50: 2.51e-07 M
[4]
  BAF3-FGFR1 (MIN IL3 pIC50): 5.5

## COc1cccc(C(=O)c2ccc3ncn(-c4cnn(C)c4)c(=O)c3c2)c1 [Compound 23]
[1]
  BAF3-FGFR4 (pIC50): <5
FGFR1 (h)
  IC50: > 1000 nM
FGFR4 (h)
  IC50: > 1e-06 M
[2]
  BAF3-FGFR3 (MIN IL3 pIC50): <5
FGFR2 (h); [5]
  IC50: > 1e-06 M
[3]
  BAF3-KDR (MIN IL3 pIC50): <5
FGFR3 (h); [6]
  IC50: > 1e-06 M
KDR (h)
  IC50: > 1e-06 M
[4]
  BAF3-FGFR1 (MIN IL3 pIC50): <5

## CNCCN(c1cc(OC)cc(OC)c1)c1ccc2ncn(C3CCOCC3)c(=O)c2c1 [Compound 71]
VEGFR2
  Kd: > 3.16e-06 M
FGFR1
  Kd: 6.31e-07 M
FGFR2
  Kd: 3.98e-07 M
other
  melting point: 135 °C
FGFR4
  Kd: > 3.16e-06 M
FGFR3
  Kd: 1.26e-06 M

## COc1cc(OC)cc(N(CCCNC(C)C)c2ccc3ncn(C4CCOCC4)c(=O)c3c2)c1 [Compound 73]
VEGFR2
  Kd: > 3.16e-06 M
FGFR1
  Kd: 6.31e-08 M
FGFR2
  Kd: 5.01e-08 M
other
  melting point: 240 °C
FGFR4
  FGFR4_pKd: 5.9
FGFR3
  Kd: 1.58e-07 M

## COc1cc(OC)c(F)c(N(CCO)c2ccc3ncn(-c4cncnc4)c(=O)c3c2)c1 [Compound 74]
VEGFR2
  Kd: > 3.16e-06 M
FGFR1
  Kd: 7.94e-07 M
FGFR2
  Kd: 1.26e-07 M
other
  melting point: 200 °C
FGFR4
  Kd: 2e-06 M
FGFR3
  Kd: 3.98e-07 M

## COc1cc(OC)c(F)c(N(Cc2ncc[nH]2)c2ccc3ncn(C4CCOCC4)c(=O)c3c2)c1 [Compound 75]
VEGFR2
  Kd: > 3.16e-06 M
FGFR1
  Kd: 3.98e-08 M
FGFR2
  Kd: 1e-08 M
other
  melting point: > 260 °C
FGFR4
  Kd: 2e-07 M
FGFR3
  Kd: 1.58e-08 M

## COc1cc(OC)c(F)c(N(CCO)c2ccc3ncn(-c4cncnc4)c(=O)c3c2)c1F [Compound 76]
VEGFR2
  Kd: > 3.16e-06 M
FGFR1
  Kd: 6.31e-08 M
FGFR2
  Kd: 1.58e-08 M
other
  melting point: 178 °C
FGFR4
  Kd: 2e-07 M
FGFR3
  Kd: 3.16e-08 M
